Patent publication US7632678B2, “Cancer stem cells and uses thereof” (The Hospital for Sick Children, priority 2005, dated 2009)

Tested on: Tumor-initiating cells (NB12)
Experiment: IC50 determination, alamarBlue cell survival/growth
Type: cell-based, human
Conditions: 10 serial dilutions 5 μM to 9 nM
Description: Tumor-initiating cells and normal cells were treated with 10 serial dilutions of compounds (5 μM to 9 nM). […] (FS90=normal cells; NB12=tumor-initiating cells).
Tumor-initiating cells (NB12) and normal cells (FS90) were treated with 10 serial dilutions of compounds ranging from 5 μM to 9 nM. […] IC50 values for NB12 are given above each plot.
IC50 values for NB12 and FS90 are given beside each plot.
For each cell type, cells were passaged 5 days prior to screening.

## Dequalinium analog, C-14 linker
  IC50: 1110 nM
